Columns and labels:
[1] = Human liver microsome stability; format: in vitro ADME; details: 1 μM compound, NADPH 1 mM, pH 7.4, 37° C., 0-60 min; for half-life at 1 μM: human, pooled human liver microsomes, pH 7.4, pooled human liver microsomes 0.5 mg/mL, read-out: HLM Metabolism t1/2
Protocol: Pooled human liver microsomes (0.5 mg/mL) was pre-incubated with 1 μM test compounds or control compounds (verapamil, warfarin and cerivastatin) in 0.1 M phosphate buffer pH 7.4 containing 1 mM MgCl2 at 37° C. The final concentration of DMSO and acetonitrile are 0.05% and 0.2%, respectively. All incubations are performed singularly for each compound. NADPH was added to initiate the reaction with the final concentration of 1 mM and the final incubation volume of 400 μL.
At 6 time points (0, 5, 10, 20, 40 and 60 min) reactions were stopped by the removal of 50 μL of the incubation mixture into plates containing acetonitrile at a of 1:3 (v:v). The plates were centrifuged at 3000 rpm for 10 min at 4° C. to precipitate the protein. Following protein precipitation, the sample supernatants were combined in cassettes of up to 8 compounds. The internal standard was added (1:1 supernatant to internal standard solution) and samples were analyzed using standard LC-MS conditions.
From a plot of ln peak area ratio (compound peak area/internal standard peak area) against time, the gradient of the line is determined. Subsequently, half-life is calculated using the equations below: […]

[2] = Cytotoxicity, ATPlite Luminescence Assay; format: cell-based, human; details: human, HepG2 or HepG2.117 cells, 3-days incubation unless marked with *, ATPlite viability
Protocol: Cytotoxicity of the compounds was tested using HepG2 or HepG2.117 cells, incubated for 3 or 4 days in the presence of compounds. The viability of the cells was assessed using the PERKIN ELMER ATPlite Luminescence Assay System.”

HBV = assay: Anti-HBV activity in HepG2.117 cell line (intracellular HBV DNA, real-time PCR); format: cell-based, hepatitis B virus; details: HepG2.117 cells, HBV replication induced, 3 days of treatment, intracellular HBV DNA by real-time PCR
Protocol: The anti HBV activity was measured using the HepG2.117 cell line, a stable, inducibly HBV producing cell line, which replicates HBV in the absence of doxycycline (Tet-off system). The HepG2 cell line is available from ATCCR under number HB-8065. Transfection of the HepG2 cell line can be as described in Sun and Nassal 2006 Journal of Hepatology 45 (2006) 636-645 “Stable HepG2-and Huh7-based human hepatoma cell lines for efficient regulated expression of infectious hepatitis B virus”.
For the antiviral assay, HBV replication was induced, followed by a treatment with serially diluted compound in 96-well plates. After 3 days of treatment, the antiviral activity was determined by quantification of intracellular HBV DNA using real-time PCR and an HBV specific primer set and probe.

[3] = Hepatitis B virus, HepG2.117, 72 h

Compound: CC(c1ccc(OC(F)F)cc1)N1C[C@@H](C(=O)NC2CC2)n2nc3c(c2C1=O)CN(C(=O)c1ccc(Cl)c(C#N)c1)[C@H](C)C3 (single isomer, unassigned) [Compound 26A, (3R,7S)-2-(4-Chloro-3-cyanobenzoyl)-N-cyclopropyl-9-((R*)-1-(4-(difluoromethoxy)phenyl)ethyl)-3-methyl-10-oxo-1,2,3,4,7,8,9,10-octahydropyrido[4′,3′:3,4]pyrazolo[1,5-a]pyrazine-7-carboxamide]
- HLM Metabolism t1/2 ([1]; pooled human liver microsomes 0.5 mg/mL): >3 h
- CC50 [2]: 29.7 µM
- EC50 (HBV): 0.19 µM

Compound: CNC(=O)[C@@H]1CN(C(C)c2cnc(C(F)(F)F)nc2)C(=O)c2c3c(nn21)C[C@@H](C)N(C(=O)c1ccc(Cl)c(C(F)(F)F)c1)C3 (single isomer, unassigned) [Compound 43A, (3R,7S)-2-(4-Chloro-3-(trifluoromethyl)benzoyl)-N,3-dimethyl-10-oxo-9-((R*)-1-(2-(trifluoromethyl)pyrimidin-5-yl)ethyl)-1,2,3,4,7,8,9,10-octahydropyrido[4′,3′:3,4]pyrazolo[1,5-a]pyrazine-7-carboxamide]
- half-life at 1 μM [1]: > 3 h
- CC50 [2]: > 50 µM
- EC50 (HBV): 0.61 µM

Compound: CNC(=O)[C@@H]1CN(C(C)c2ccc(-n3cncn3)cc2)C(=O)c2c3c(nn21)C[C@@H](C)N(C(=O)c1ccc(Cl)c(Cl)c1)C3 (single isomer, unassigned) [Compound 2A, (3R,7S)-9-((R*)-1-(4-(1H-1,2,4-triazol-1-yl)phenyl)ethyl)-2-(3,4-dichlorobenzoyl)-N,3-dimethyl-10-oxo-1,2,3,4,7,8,9,10-octahydropyrido[4′,3′:3,4]pyrazolo[1,5-a]pyrazine-7-carboxamide]
- half-life at 1 μM [1]: > 3 h
- CC50 [2]: > 50 µM
- EC50 (HBV): 0.042 µM

Compound: CNC(=O)[C@@H]1CN(Cc2ccc(S(=O)(=O)C3CC3)cc2)C(=O)c2c3c(nn21)C[C@@H](C)N(C(=O)c1ccc(Cl)c(C(F)(F)F)c1)C3 [Compound 21, (3R,7S)-2-(4-Chloro-3-(trifluoromethyl)benzoyl)-9-(4-(cyclopropylsulfonyl)benzyl)-N,3-dimethyl-10-oxo-1,2,3,4,7,8,9,10-octahydropyrido[4′,3′:3,4]pyrazolo[1,5-a]pyrazine-7-carboxamide]
- half-life at 1 μM [1]: > 3 h
- CC50 [2]: > 50 µM
- EC50 (HBV; [3]): 0.086 µM

Compound: CNC(=O)[C@@H]1CN([C@@H](C)c2ccc(OC(F)F)cc2)C(=O)c2c3c(nn21)C[C@@H](C)N(C(=O)c1ccc(Cl)c(Cl)c1)C3 [Compound 16B, (3R,7S)-2-(3,4-dichlorobenzoyl)-9-((S)-1-(4-(difluoromethoxy)phenyl)ethyl)-N,3-dimethyl-10-oxo-1,2,3,4,7,8,9,10-octahydropyrido[4′,3′:3,4]pyrazolo[1,5-a]pyrazine-7-carboxamide]
- half-life at 1 μM [1]: > 3 h
- CC50 [2]: 16.9 µM
- EC50 (HBV; [3]): 0.02 µM

Compound: CNC(=O)[C@@H]1CN(C(C)c2cc(F)ccn2)C(=O)c2c3c(nn21)C[C@@H](C)N(C(=O)c1ccc(Cl)c(Cl)c1)C3 (single isomer, unassigned) [Compound 42A, (3R,7S)-2-(3,4-Dichlorobenzoyl)-9-((R*)-1-(4-fluoropyridin-2-yl)ethyl)-N,3-dimethyl-10-oxo-1,2,3,4,7,8,9,10-octahydropyrido[4′,3′:3,4]pyrazolo[1,5-a]pyrazine-7-carboxamide]
- half-life at 1 μM [1]: > 3 h
- CC50 [2]: > 50 µM
- EC50 (HBV): 0.28 µM

Compound: CNC(=O)[C@@H]1CN(C(C)c2ccc(C(F)(F)F)nc2)C(=O)c2c3c(nn21)C[C@@H](C)N(C(=O)c1ccc(Br)c(Cl)c1)C3 (single isomer, unassigned) [Compound 10B, (3R,7S)-2-(4-bromo-3-chlorobenzoyl)-N,3-dimethyl-10-oxo-9-((S*)-1-(6-(trifluoromethyl)pyridin-3-yl)ethyl)-1,2,3,4,7,8,9,10-octahydropyrido[4′,3′:3,4]pyrazolo[1,5-a]pyrazine-7-carboxamide]
- half-life at 1 μM [1]: > 3 h
- CC50 [2]: 46.8 µM
- EC50 (HBV; [3]): 0.019 µM

Compound: CNC(=O)[C@@H]1CN([C@@H](C)c2ccc(OC(F)F)cc2)C(=O)c2c3c(nn21)C[C@@H](C)N(C(=O)c1ccc(Cl)c(C(F)F)c1)C3 [Compound 25, (3R,7S)-2-(4-Chloro-3-(difluoromethyl)benzoyl)-9-((S)-1-(4-(difluoromethoxy)phenyl)ethyl)-N,3-dimethyl-10-oxo-1,2,3,4,7,8,9,10-octahydropyrido[4′,3′:3,4]pyrazolo[1,5-a]pyrazine-7-carboxamide]
- half-life at 1 μM [1]: 1.3 h
- CC50 [2]: > 50 µM
- EC50 (HBV; [3]): 0.01 µM

Compound: CNC(=O)[C@@H]1CN([C@@H](C)c2cnc(C(F)(F)F)cn2)C(=O)c2c3c(nn21)C[C@@H](C)N(C(=O)c1ccc(Cl)c(Cl)c1)C3 [Compound 6B, (3R,7S)-2-(3,4-Dichlorobenzoyl)-N,3-dimethyl-10-oxo-9-((S)-1-(5-(trifluoromethyl)pyrazin-2-yl)ethyl)-1,2,3,4,7,8,9,10-octahydropyrido[4′,3′:3,4]pyrazolo[1,5-a]pyrazine-7-carboxamide]
- half-life at 1 μM [1]: > 3 h
- CC50 [2]: > 50 µM
- EC50 (HBV; [3]): 0.092 µM

Compound: CNC(=O)[C@@H]1CN([C@@H](C)c2ccc(S(C)(=O)=O)cc2)C(=O)c2c3c(nn21)C[C@@H](C)N(C(=O)c1ccc(Cl)c(Cl)c1)C3 [Compound 18B, (3R,7S)-2-(3,4-Dichlorobenzoyl)-N,3-dimethyl-9-((S)-1-(4-(methylsulfonyl)phenyl)ethyl)-10-oxo-1,2,3,4,7,8,9,10-octahydropyrido[4′,3′:3,4]pyrazolo[1,5-a]pyrazine-7-carboxamide]
- half-life at 1 μM [1]: > 3 h
- CC50 [2]: > 50 µM
- EC50 (HBV; [3]): 0.037 µM

Compound: CNC(=O)[C@@H]1CN(C(C)c2ccc(-c3nnnn3C)cc2)C(=O)c2c3c(nn21)C[C@@H](C)N(C(=O)c1ccc(Cl)c(Cl)c1)C3 (single isomer, unassigned) [Compound 29A, (3R,7S)-2-(3,4-Dichlorobenzoyl)-N,3-dimethyl-9-((R*)-1-(4-(1-methyl-1H-tetrazol-5-yl)phenyl)ethyl)-10-oxo-1,2,3,4,7,8,9,10-octahydropyrido[4′,3′:3,4]pyrazolo[1,5-a]pyrazine-7-carboxamide]
- half-life at 1 μM [1]: > 3 h
- CC50 [2]: > 50 µM
- EC50 (HBV): 0.82 µM

Compound: CNC(=O)[C@@H]1CN(C(C)c2ccn(CC(F)(F)F)n2)C(=O)c2c3c(nn21)C[C@@H](C)N(C(=O)c1ccc(Cl)c(C(F)(F)F)c1)C3 (single isomer, unassigned) [Compound 14B, (3R,7S)-2-(4-chloro-3-(trifluoromethyl)benzoyl)-N,3-dimethyl-10-oxo-9-((S*)-1-(1-(2,2,2-trifluoroethyl)-1H-pyrazol-3-yl)ethyl)-1,2,3,4,7,8,9,10-octahydropyrido[4′,3′:3,4]pyrazolo[1,5-a]pyrazine-7-carboxamide]
- half-life at 1 μM [1]: > 3 h
- CC50 [2]: > 50 µM
- EC50 (HBV; [3]): 0.031 µM

Compound: CNC(=O)[C@@H]1CN(C(C)c2ccc(OC)nc2)C(=O)c2c3c(nn21)C[C@@H](C)N(C(=O)c1ccc(Cl)c(Cl)c1)C3 (single isomer, unassigned) [Compound 31A, (3R,7S)-2-(3,4-Dichlorobenzoyl)-9-((R*)-1-(6-methoxypyridin-3-yl)ethyl)-N,3-dimethyl-10-oxo-1,2,3,4,7,8,9,10-octahydropyrido[4′,3′:3,4]pyrazolo[1,5-a]pyrazine-7-carboxamide]
- half-life at 1 μM [1]: > 3 h
- CC50 [2]: > 50 µM
- EC50 (HBV): 0.066 µM
